The source of these data is publication PMC8834506, “Optimization of Thymidine Kinase-Based Safety Switch for Neural Cell Therapy” (Cells, 2022).

Series [1] is classed as in vivo, NOD/SCID mice. To be noted: 40 mg/kg/day i.p.; weighed daily during treatment. Here is the method:
(§1) Given the encouraging in vitro results, we next investigated whether this newly developed safety switch system (SR39h and different nucleoside analogs) could prevent tumor formation in vivo. For this purpose, 20,000 undifferentiated Ki67-SR39h-expressing hESC were transplanted into the striatum of NOD/SCID mice. […] A group of control mice received only a NaCl solution. […] Human cytoplasmic marker (HCM) staining confirmed the human (i.e., hESC-derived) origin of these tumors. Tumors cells were predominantly Ki67 positive with a rosette organization as frequently found in tumors of the central nervous system.
Supplementary Figure S3: Mice weight
Mice were weighed daily during guanosine analogs treatment to identify differences in weight gain/loss between treated groups. No differences were observed between treatment groups.
Supplementary Figure S4: in vivo validation of suicide gene. Coronal section of NOD/SCID mice 47 days after injection of hESC expressing the SR39h thymidine kinase variant. Mice were treated for 2x5 days with the respective nucleoside analogs (see Methods). Upper lane: ACV; middle lane: PCV; lower lane: GCV. Sections were colored with cresyl violet and dark purple staining reflects a high density of nuclei. Scale bar 1000 µm. […]

Series [2] has as its system Ki67-SR39h-expressing hESC transplanted into the striatum. Briefly: In vivo prevention of tumor formation after striatal transplantation. Further details: species or system NOD/SCID mice. To be noted: 40 mg/kg/day i.p., 47 days post-transplantation. Here is the method:
as §1
Figure 7 in vivo validation of suicide gene and inducers. (A) Schematic diagram of the experimental setup to detect tumor elimination in vivo. NOD/SCID mice were transplanted with 20,000 SR39h-expressing hESC through stereotactic injection into the striatum. 48 h post transplantation, mice were intraperitoneally injected with the respective nucleoside (40 mg/kg) for five consecutive days a week during a two-week period. Control mice were treated with a NaCl solution. Mice were sacrificed 47 days post transplantation. (B) Cresyl violet staining of a brain section. […] (C) Immunostaining of brain coronal section (sections from ACV-, PCV-, and GCV-treated mice are shown in the upper, middle, and lower row, respectively). Staining with the proliferation marker Ki67 and with the human cytoplasmic marker (HCM) are shown in red and green, respectively. Nuclei were counterstained with DAPI (blue). White arrows show residual proliferative cells form the graft. A merge of the three staining is shown in the right column. Each experimental group consisted of five mice.
Single cell transplant: Undifferentiated HS420 (expressing TK variants) were detached by TrypLE and concentrated at 20,000 cells/μL in Stemflex. 20,000 cells (1 μL) were injected into the right striatum using a 26-G Hamilton syringe (Hamilton, BGB Analytik AG, Boeckten, Switzerland). Injection coordinates for striatum were: bregma = 0.6 mm, mediolateral = 2 mm, dorsoventral = 3 mm.
Thirty days after termination of treatment with the respective antiviral nucleoside analogs or control (NaCl), mice were sacrificed by intracardiac perfusion of paraformaldehyde 4% in PBS. Brains were removed from the skull and post-fixed in the same fixative overnight.
Paraffin embedded brains were sectioned (coronal sections 7 µm thick) and processed for hematoxylin and eosin or cresyl violet staining stain aiming morphological assessment of the graft. Sections were mounted in Eukitt (Kindler GmbH, Germany) and observed under microscope (see below)
The primary antibody diluted in PBS with 0.3% Triton was incubated at 4 °C overnight in agitation. […]

In series [3] the test system is non-transduced hESC. The format is cell-based. To be noted: 96 h nucleoside exposure; up to 100 µM. Here is the method:
Cells were exposed to 100 µM of the respective nucleoside for 48 h. DNA damage was monitored using γ-H2A.X marker in yellow and nuclei were counterstained with Hoechst. The white box in the first column indicates the area of the zoom for the hESC colonies.
Plates were washed twice with DMEM-F12 (Gibco, ThermoFisher; Geneva, Switzerland), then coated with Matrigel (Corning, Lonay, Switzerland) 1/100 in DMEM-F12 and incubate 2 h at 37°. Cells were detached using Accutase and seeded at 2000 cells/well in serum-free culture medium containing 10 µM of ROCK inhibitor. At 24 h, the cell culture was continued without ROCK inhibitor. […] Drugs were prepared by serial dilution (two-fold) in 100% DMSO. At 48 h after seeding, cells were exposed to antiviral drugs for 96 h. For EC50 assays, the medium was changed daily for 4 days, then cell viability was assessed using an ATP-based assay. EC50 values for each construct were calculated using a four parameters equation (GraphPad, Prism8, San Diego, CA, USA). The same procedure was used for the cell death kinetic determinations except the treatment duration. Luminescence was measured using Spectra L384/L96 (0.2 sec exposure, Molecular devices, Biberach an der Riß, Germany).

Entries after “also recorded” stand apart in the source; their conditions may differ.

In the case of `Nc1nc(O)c2ncn(COC(CO)CO)c2n1` [GCV, ganciclovir], the “Differences in weight among groups” value in series [1] is “no significant differences in weight”. In series [2] (five consecutive days a week for two weeks, from 2 days after transplantation, five mice per group), the Tumor formation entry is “prevented tumor formation; also recorded: no major tumors; also recorded: impressive anti-tumor activities”. Besides, the “Mice with a small nuclei-rich region at the graft site” value in series [2] (cresyl violet staining) is “did not observe any structures resembling tumors”. In addition, the “Toxicity in non-transduced hESC” value in series [3] was “low micromolar range”.
